For orientation: IC50 means the concentration that inhibits the measured activity by half. The term melting point denotes the temperature of the solid-liquid transition.

The target of one series is human recombinant PDE4A (Homo sapiens, UniProt P27815). Description: Hydrolysis of 1 uM cAMP by human recombinant PDE4A. Format: biochemical. The conditions noted are these: for IC50: human recombinant PDE4A, 1 uM cAMP, read-out: Isozyme - IC50, A; for Enantiomer (+) vs. (−), PDE4A: potency of (+) relative to (−) enantiomer. On the procedure: (§1) To assess pharmacologically which PDE4 isozyme(s) is responsible for eosinophil activation, we have prepared enantiomers of PDE4 inhibitors and compare the inhibitory effect of these enantiomers on PDE activity and eosinophil activation. PDE4 activity is assessed by measuring hydrolysis of 1 uM cAMP by individual human recombinant PDE4 isozymes (PDE4A, 4B, 4C or 4D). Eosinophil activation is estimated by measuring Sephadex beads-induced release of eosinophil derived neurotoxin (EDN) and leukotriene E4 in human whole blood. Table 1 illustrates comparison of one example of (−) and (+) enantiomers on the activity of individual PDE4 isozymes and on the release of END and LTE4.

For a further series, the target named is human recombinant PDE4B (Homo sapiens, UniProt Q07343). Kind of series: Hydrolysis of 1 uM cAMP by human recombinant PDE4B. Format: biochemical. As to conditions: for IC50: human recombinant PDE4B, 1 uM cAMP, read-out: Isozyme - IC50, B; for Enantiomer (+) vs. (−), PDE4B: potency of (+) relative to (−) enantiomer. On the procedure: as §1
A further series deals with human recombinant PDE4C (Homo sapiens, UniProt Q08493). Description: Hydrolysis of 1 uM cAMP by human recombinant PDE4C. As to conditions: for IC50: human recombinant PDE4C, 1 uM cAMP, read-out: Isozyme - IC50, C; for Enantiomer (+) vs. (−), PDE4C: potency of (+) relative to (−) enantiomer. The class given is biochemical. The procedure:
as §1

The next series addresses human recombinant PDE4D (Homo sapiens, UniProt Q08499). Description: Hydrolysis of 1 uM cAMP by human recombinant PDE4D. The class given is biochemical. The conditions noted are these: for IC50: human recombinant PDE4D, 1 uM cAMP, read-out: Isozyme - IC50, 4D; for Enantiomer (+) vs. (−), PDE4D: potency of (+) relative to (−) enantiomer. On the procedure:
as §1

In series [1] the test system is eosinophil derived neurotoxin (EDN) release, human whole blood eosinophils. Kind of series: Sephadex beads-induced EDN release in human whole blood (eosinophil degranulation). Format: cell-based. As to conditions: for IC50: Homo sapiens, Eosinophil, read-out: HWB Eosinophil IC30 or IC50, EDN; for Enantiomer (+) vs. (−), EDN: potency of (+) relative to (−) enantiomer, human whole blood. On the procedure:
(§2) Inhibition of Eosinophil Degranulation and Activation in Human Whole Blood
(§3) Human Blood Eosinophil Degranulation and Activation Measurement
(§4) Blood Collection and Compound Incubation
(§5) One hundred ml blood is obtained from normal volunteers in Vacutainer tube #6480 (14.3 USP units sodium heparin/ml blood). Heparinized blood is pooled in 50 ml conical centrifuge tubes at 22° C. On ml blood is placed in a 12×75 mm siliconized glass tube containing 1 ul DMSO or 1 ul test compound in triplicate. After mixing, tubes are placed in a shaking water bath at 37° C. for 15 minutes. One ul PGE1 in DMSO is added to all tubes to give a final concentration of 1 uM. After mixing, 100 ul PBS (negative control) or Sephadex G-15 beads in PBS (8.25-16.5 mg/ml final concentration) is added to tubes. After mixing, all tubes are incubated in a shaking water bath at 37° C. for 1-2 hours.
(§6) Preparation of Plasma Samples
(§7) At the end of incubation, 20 ul of 15% EDTA in PBS is added to each assay tube. After mixing, the samples are centrifuged at 2,000 rpm (Sorvall 6000B centrifuge) at 22° C. for 5 minutes.
(§8) EDN (or EPX) and LTE4 Measurements and the Effect of Compounds
(§9) All plasma samples are tested for EDN (eosinophil derived neurotoxin) and LTE4 (leukotriene E4) levels. […] The levels of EDN and LTE4 are determined by a RIA (Kabi Pharmacia Diagnostics) and EIA (Cayman Chemical), respectively. EDN and LTE4 levels are calculated by comparison to a standard curve using Microsoft Excel or other appropriate software. Percent of control EDN or LTE4 release is calculated by:
% Control EDN=[EDN(compound)−EDN(blank)]/[EDN(total)−EDN(blank)]
(§10) where the blank is the level of EDN or LTE4 in the absence of Sephadex beads and the total is the level of EDN or LTE4 in the presence of Sephadex beads. An IC30 or IC50 value is defined as the concentration of a compound that inhibits specific EDN or LTE 4 release by 30 or 50%, respectively.
as §1

The subject of series [2] is leukotriene E4 (LTE4) release, human whole blood eosinophils. Kind of series: Sephadex beads-induced LTE4 release in human whole blood (eosinophil activation). Format: cell-based. The conditions noted are these: for IC50: Eosinophil, Sephadex beads, head does not say whether IC30 or IC50, read-out: HWB Eosinophil IC30 or IC50, LTE4; for Enantiomer (+) vs. (−), LTE4: potency of (+) relative to (−) enantiomer. On the procedure: as §2, §3, §4, §5, §6, §7, §8, §9
% Control LTE4=[LTE4(compound)−LTE4(blank)]/[LTE4(total)−LTE4(blank)]
as §10, §1

Sequence of human recombinant PDE4D (Q08499 whole entry): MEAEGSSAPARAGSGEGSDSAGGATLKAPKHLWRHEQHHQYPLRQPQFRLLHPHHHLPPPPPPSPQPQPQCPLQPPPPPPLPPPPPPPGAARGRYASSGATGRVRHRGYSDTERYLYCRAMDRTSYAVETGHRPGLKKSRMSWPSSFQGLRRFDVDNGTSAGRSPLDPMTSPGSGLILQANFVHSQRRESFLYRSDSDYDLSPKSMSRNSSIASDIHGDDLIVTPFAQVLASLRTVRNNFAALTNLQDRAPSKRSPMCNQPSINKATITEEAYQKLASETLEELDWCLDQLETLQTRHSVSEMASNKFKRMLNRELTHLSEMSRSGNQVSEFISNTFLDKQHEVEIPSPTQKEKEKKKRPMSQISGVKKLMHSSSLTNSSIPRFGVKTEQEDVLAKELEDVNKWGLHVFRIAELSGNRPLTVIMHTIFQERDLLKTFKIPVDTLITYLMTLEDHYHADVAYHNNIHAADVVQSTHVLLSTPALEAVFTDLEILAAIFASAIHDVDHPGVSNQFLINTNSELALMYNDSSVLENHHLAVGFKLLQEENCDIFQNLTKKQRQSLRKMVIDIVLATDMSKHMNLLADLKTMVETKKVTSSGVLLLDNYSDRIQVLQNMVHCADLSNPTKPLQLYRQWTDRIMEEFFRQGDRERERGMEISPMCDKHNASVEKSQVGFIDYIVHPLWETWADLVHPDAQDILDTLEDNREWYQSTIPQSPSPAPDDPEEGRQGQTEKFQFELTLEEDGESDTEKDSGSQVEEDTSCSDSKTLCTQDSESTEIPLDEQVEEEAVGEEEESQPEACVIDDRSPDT
Sequence of human recombinant PDE4B (Q07343 whole entry): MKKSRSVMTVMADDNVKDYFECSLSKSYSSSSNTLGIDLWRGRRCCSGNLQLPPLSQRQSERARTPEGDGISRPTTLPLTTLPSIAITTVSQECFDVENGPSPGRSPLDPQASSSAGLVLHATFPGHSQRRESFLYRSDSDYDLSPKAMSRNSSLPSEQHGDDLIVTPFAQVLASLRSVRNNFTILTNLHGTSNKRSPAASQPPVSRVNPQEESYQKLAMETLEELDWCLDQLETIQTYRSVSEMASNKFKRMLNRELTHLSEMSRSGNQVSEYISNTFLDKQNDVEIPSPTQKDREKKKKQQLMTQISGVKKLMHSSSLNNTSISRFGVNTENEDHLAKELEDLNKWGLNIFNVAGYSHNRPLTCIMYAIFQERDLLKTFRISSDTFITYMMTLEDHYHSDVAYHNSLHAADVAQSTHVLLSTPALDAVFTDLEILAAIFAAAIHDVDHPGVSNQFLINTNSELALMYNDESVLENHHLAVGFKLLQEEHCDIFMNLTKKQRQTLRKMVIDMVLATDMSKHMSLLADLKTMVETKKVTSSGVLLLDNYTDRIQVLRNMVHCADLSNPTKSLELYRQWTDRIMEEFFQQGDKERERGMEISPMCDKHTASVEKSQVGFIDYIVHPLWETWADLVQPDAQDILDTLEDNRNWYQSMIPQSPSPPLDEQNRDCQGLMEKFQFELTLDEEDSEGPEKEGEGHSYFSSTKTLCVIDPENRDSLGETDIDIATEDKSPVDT
Sequence of human recombinant PDE4C (Q08493 whole entry): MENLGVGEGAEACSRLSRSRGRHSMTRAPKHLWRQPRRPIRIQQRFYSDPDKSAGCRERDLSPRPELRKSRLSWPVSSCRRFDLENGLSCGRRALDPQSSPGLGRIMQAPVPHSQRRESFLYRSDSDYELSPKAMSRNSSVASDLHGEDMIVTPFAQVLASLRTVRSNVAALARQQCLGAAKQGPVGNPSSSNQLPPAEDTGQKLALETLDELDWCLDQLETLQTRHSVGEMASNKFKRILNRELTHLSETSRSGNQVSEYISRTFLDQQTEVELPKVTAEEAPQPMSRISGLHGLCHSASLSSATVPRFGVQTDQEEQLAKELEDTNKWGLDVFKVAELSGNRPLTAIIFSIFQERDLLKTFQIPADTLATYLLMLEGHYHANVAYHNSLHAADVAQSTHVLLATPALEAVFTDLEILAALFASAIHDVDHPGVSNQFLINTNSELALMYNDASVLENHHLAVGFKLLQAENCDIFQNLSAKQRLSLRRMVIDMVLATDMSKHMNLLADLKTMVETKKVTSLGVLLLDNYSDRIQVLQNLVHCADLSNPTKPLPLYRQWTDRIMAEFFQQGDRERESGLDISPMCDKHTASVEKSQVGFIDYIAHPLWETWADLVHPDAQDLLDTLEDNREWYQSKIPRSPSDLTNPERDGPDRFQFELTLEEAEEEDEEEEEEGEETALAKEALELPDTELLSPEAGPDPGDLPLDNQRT
Sequence of human recombinant PDE4A (P27815 whole entry): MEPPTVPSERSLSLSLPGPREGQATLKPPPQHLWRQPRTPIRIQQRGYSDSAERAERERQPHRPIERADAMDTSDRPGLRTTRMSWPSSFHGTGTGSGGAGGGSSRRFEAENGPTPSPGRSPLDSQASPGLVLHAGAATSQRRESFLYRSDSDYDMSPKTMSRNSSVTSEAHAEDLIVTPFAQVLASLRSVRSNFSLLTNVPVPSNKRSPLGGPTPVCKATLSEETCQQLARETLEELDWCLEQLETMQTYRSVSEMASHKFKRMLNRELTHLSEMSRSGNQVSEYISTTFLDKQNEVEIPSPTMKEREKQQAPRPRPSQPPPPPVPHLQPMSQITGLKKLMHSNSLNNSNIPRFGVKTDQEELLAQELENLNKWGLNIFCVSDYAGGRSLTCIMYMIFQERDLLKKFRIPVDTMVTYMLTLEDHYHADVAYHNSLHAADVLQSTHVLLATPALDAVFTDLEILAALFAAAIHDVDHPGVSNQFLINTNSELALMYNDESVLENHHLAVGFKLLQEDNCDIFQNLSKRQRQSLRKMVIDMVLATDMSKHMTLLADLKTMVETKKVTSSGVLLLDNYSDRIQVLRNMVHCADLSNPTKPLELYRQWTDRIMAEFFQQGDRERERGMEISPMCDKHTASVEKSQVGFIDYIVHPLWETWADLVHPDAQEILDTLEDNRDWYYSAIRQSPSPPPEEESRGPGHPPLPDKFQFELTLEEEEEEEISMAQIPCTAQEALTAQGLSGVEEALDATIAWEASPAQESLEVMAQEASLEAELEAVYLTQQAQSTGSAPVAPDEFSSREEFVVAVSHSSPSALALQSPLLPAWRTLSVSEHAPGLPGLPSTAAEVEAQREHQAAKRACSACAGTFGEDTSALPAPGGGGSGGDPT

As to `COc1ccc([C@H](C)NC(=O)c2cccnc2Oc2ccc(F)cc2)cc1` [(+) Enantiomer, (S)-(+) 2-(4-Fluoro-phenoxy)-N-[1-(4-methoxy-phenyl)-ethyl]-nicotinamide], on human recombinant PDE4A, the IC50 was found to be 600 nM and the “Enantiomer (+) vs. (−), PDE4A” value is “approximately equipotent”. In addition, at human recombinant PDE4B, the IC50 was 600 nM and the “Enantiomer (+) vs. (−), PDE4B” value is “approximately equipotent”. In addition, at human recombinant PDE4C, the IC50 amounted to 800 nM and the “Enantiomer (+) vs. (−), PDE4C” value is “approximately equipotent”. Further, on human recombinant PDE4D, the IC50 was determined as 9 nM and the “Enantiomer (+) vs. (−), PDE4D” value was 22 X. In addition, in series [1], the IC50 came to 50 nM and the “Enantiomer (+) vs. (−), EDN” value is 20-37 X. In series [2], the IC50 is 8 nM and the “Enantiomer (+) vs. (−), LTE4” value is given as 20-37 X.
With `COc1ccc([C@@H](C)NC(=O)c2cccnc2Oc2ccc(F)cc2)cc1` [(−) Enantiomer, (R)(−)2-(4-Fluoro-phenoxy)-N-[1-(4-methoxy-phenyl)-ethyl]-nicotinamide], the IC50 on human recombinant PDE4A came to 600 nM; at human recombinant PDE4B, 300 nM; on human recombinant PDE4C, 400 nM; on human recombinant PDE4D, 200 nM; in series [1] it was 1000 nM; in series [2], 300 nM.
In turn, `CC(=O)c1cc(Oc2ncccc2C(=O)NC[C@H]2CC[C@H](C(C)(C)O)CC2)ccc1Cl` [Example 309, 2-(3-Acetyl-4-chloro-phenoxy)-N-(trans-4-(1-hydroxy-1-methyl-ethyl)-cyclohexylmethyl)-nicotinamide] came in with a melting point of 106 to 108 °C.
Same read-out and setting: in the case of `Cc1noc2ccc(Oc3ncccc3C(=O)NCC3CCC(C(C)(C)O)CC3)cc12` (stereo not shown) [Example 315, N-(4-(1-Hydroxy-1-methyl-ethyl)-cyclohexylmethyl)-2-(3-methyl-benzo(d)-isoxazol-5-yloxy)-nicotinamide] it was 135 to 137 °C; in that of `Cc1noc2ccc(Oc3ncccc3C(=O)NCc3ccc(C(C)(C)O)cc3)cc12` [Example 316, N-(4-(1-Hydroxy-1-methyl-ethyl)-benzyl)-2-(3-methyl-benzo(d)-isoxazol-5-yloxy)-nicotinamide], 128 to 130 °C; in that of `Cc1noc2c(Oc3ncccc3C(=O)NCC3CCC(C(C)(C)O)CC3)cccc12` (stereo not shown) [Example 317, N-(4-(1-Hydroxy-1-methyl-ethyl)-cyclohexylmethyl)-2-(3-methyl-benzo(d)-isoxazol-7-yloxy)-nicotinamide], 170 to 172 °C.
The same measure, in the same setting: for `CC(C)(O)C1CCC(CNC(=O)c2cccnc2Oc2ccc(F)c(C#N)c2)CC1` (stereo not shown) [Example 322, 2-(3-Cyano-4-fluoro-phenoxy)-N-[4-(1-hydroxy-1-methyl-ethyl)-cyclohexylmethyl]-nicotinamide] the value was 85 to 88 °C; for `CC(C)(O)c1ccc(CNC(=O)c2cccnc2Oc2ccc3c(c2)OCO3)c(F)c1` [Example 327, 2-(Benzo[1,3]dioxol-5-yloxy)-N-[2-fluoro-4-(1-hydroxy-1-methyl-ethyl)-benzyl]-nicotinamide], 94 to 95 °C.
Turning to `CC(C)(O)c1ccc(CNC(=O)c2cccnc2Oc2ccc(F)cc2)c(F)c1` [Example 328, N-[2-Fluoro-4-(1-hydroxy-1-methyl-ethyl)-benzyl]-2-(4-fluoro-phenoxy)-nicotinamide], the melting point fell in the range of 93 to 94 °C.
With “(S)-(+) 2-(4-Fluoro-phenoxy)-N-[1-(4-methoxy-phenyl)-ethyl]-nicotinamide [(+) Enantiomer]”, the “Enantiomer (+) vs. (−), PDE4A” value at human recombinant PDE4A was “.s”. For the same compound, the “Enantiomer (+) vs. (−), PDE4B” value at human recombinant PDE4B was “.5X”. For the same compound, at human recombinant PDE4C, the “Enantiomer (+) vs. (−), PDE4C” value is given as 0.5X. Besides, the “Enantiomer (+) vs. (−), PDE4D” value on human recombinant PDE4D was determined as 22X. The “Enantiomer (+) vs. (−), EDN” value in series [1] was 20X. Also, the “Enantiomer (+) vs. (−), LTE4” value in series [2] amounted to 37X.

The values above are taken from patent US6380218B1, “Nicotinamide derivatives” (Pfizer Inc, priority 1997, dated 2002).
